The target of the assay is T1, 5-Lipoxygenase (Homo sapiens, UniProt P09917).
T1 construct: from tissue; host or cells: human heparinized whole blood (endogenous enzyme of its blood cells)
T1 sequence (P09917 1-674): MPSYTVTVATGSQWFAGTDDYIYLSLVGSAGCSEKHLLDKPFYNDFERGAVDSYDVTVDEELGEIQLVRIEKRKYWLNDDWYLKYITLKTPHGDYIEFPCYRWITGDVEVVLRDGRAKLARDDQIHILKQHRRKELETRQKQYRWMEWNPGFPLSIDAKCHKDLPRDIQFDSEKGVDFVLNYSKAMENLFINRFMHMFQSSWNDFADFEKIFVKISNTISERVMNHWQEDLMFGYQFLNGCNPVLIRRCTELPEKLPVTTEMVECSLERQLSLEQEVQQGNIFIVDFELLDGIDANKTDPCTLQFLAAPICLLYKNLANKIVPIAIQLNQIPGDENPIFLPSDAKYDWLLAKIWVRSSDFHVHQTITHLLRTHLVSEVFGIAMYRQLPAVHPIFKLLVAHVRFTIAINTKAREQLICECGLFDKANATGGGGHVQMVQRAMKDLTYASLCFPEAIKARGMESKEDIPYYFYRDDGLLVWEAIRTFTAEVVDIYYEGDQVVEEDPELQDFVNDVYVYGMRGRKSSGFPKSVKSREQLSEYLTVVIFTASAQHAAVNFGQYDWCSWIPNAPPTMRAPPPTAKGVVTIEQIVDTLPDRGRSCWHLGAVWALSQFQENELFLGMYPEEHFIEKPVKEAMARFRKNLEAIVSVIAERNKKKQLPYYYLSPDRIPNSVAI
In words: Inhibition of leukotriene biosynthesis: calcium ionophore A23187-induced LTB4 biosynthesis in human whole blood (RIA). The format is cell-based. The conditions noted are these: for IC50: human heparinized whole blood, 15 min preincubation at 37° C., A23187 8.3 μM, 30 min, LTB4 by RIA, read-out: In vitro inhibitory potency against 5-lipoxygenase from stimulated LTB4 formation in human whole blood, IC50. As for the experimental part:
Inhibition of leukotriene biosynthesis was evaluated in an assay, involving calcium ionophore-induced LTB4 biosynthesis expressed human whole blood. Human heparinized whole blood was preincubated with test compounds or vehicle for 15 min at 37° C. followed by calcium ionophore A23187 challenge (final concentration of 8.3 μM) and the reaction terminated after 30 min by adding two volumes of methanol containing prostaglandin B2 as an internal recovery standard. The methanol extract was analyzed for LTB4 using a commercially available radioimmunoassay.

The mark [1] stands for this setting: human whole blood, A23187, read-out: Inhibition of stimulated LTB4 formation in human whole blood.

As a reminder, the inhibition is how much of the control response was suppressed. Consider `CON=C(c1cccc(OCc2ccc3c(ccc(=O)n3C)c2)c1)C1CCOCC1` [Example 12, E- and Z-O-Methyl-4-[(3-((1,2-dihydro-1-methyl-2-oxoquinolin-6-yl)methoxy)phen-1-yl)oximinomethyl]tetrahydropyran], for which the inhibition at 0.78 µM under setting [1] turned out to be 99%.
In general, IC50 refers to the concentration that inhibits the measured activity by half. In the case of `CCON=C(c1cccc(OCc2ccc3c(ccc(=O)n3C)c2)c1)C1CCOCC1` [Example 13, E- and Z-O-Ethyl-4-[(3-((1,2-dihydro-1-methyl-2-oxoquinolin-6-yl)methoxy)phen-1-yl)oximinomethyl]tetrahydropyran], the IC50 came to 830 nM.
As for `Cn1c(=O)ccc2cc(COc3cc(F)cc(C(=NO)C4CCOCC4)c3)ccc21` [Example 16, E- and Z-4-[(3-((1,2-dihydro-1-methyl-2-oxoquinolin-6-yl)methoxy)-5-fluorophen-1-yl) oximinomethyl]tetrahydropyran], the inhibition at 0.78 µM under setting [1] was found to be 98%.
For `COCOC(c1cccc(OCc2ccc3c(ccc(=O)n3C)c2)c1)C1CCOCC1` (centres unmarked) [Example 10, 4-[(3-((1,2-dihydro-1-methyl-2-oxoquinolin-6-yl)methoxy)phen-1-yl)methoxymethoxymethyl]tetrahydropyran], the IC50 came to 940 nM.
Still for that read-out and setting: then `NN=C(c1cccc(OCc2ccc3ccccc3c2)c1)C1CCOCC1` [Example 6], with 2400 nM.
Still for that read-out and setting: then `COC(c1cccc(OCc2ccc3c(ccc(=O)n3C)c2)c1)C1CCOCC1` (centres unmarked) [Example 9, 4-[(3-(1,2-dihydro-1-methyl-2-oxoquinolin-6-yl)methyloxyphen-1-yl)methoxymethyl]tetrahydropyran], with 710 nM; and `CON=C(c1cc(F)cc(OCc2ccc3ccccc3c2)c1)C1(C)COC1` [Example 17, E- and Z-O-methyl-3-methyl-3-[(3-((naphth-2-yl)methoxy)-5-fluorophen-1-yl)oximinomethyl]oxetane], with 2900 nM.
As for `CON=C(c1cccc(OCc2ccc3ccccc3c2)c1)C1CCOCC1` [Example 7, E- and Z-O-methyl-4-[(3-(naphth-2-yl)methoxyphen-1-yl)oximinomethyl]tetrahydropyran], under setting [1], the inhibition at 0.39 µM was found to be 68%.
As for `COC1(Cc2cccc(OCc3ccc4ccccc4c3)c2)CCOCC1` [Example 14, 4-methoxy-4-[(3-((naphth-2-yl)methoxy)phen-1-yl)methyl]tetrahydropyran], the IC50 is 2000 nM.
On the same count and under the same terms, then `COC(c1cccc(OCc2ccc3ccccc3c2)c1)C1CCOCC1` (centres unmarked) [Example 2, 4-[(3-(naphth-2-yl)methoxyphen-1-yl)methoxymethyl]tetrahydropyran], with 730 nM.
Same read-out and setting: then `OC(c1cccc(OCc2ccc3ccccc3c2)c1)C1CCOCC1` (centres unmarked) [Example 1, 4-[(3-(naphth-2-yl)methoxyphen-1-yl)hydroxymethyl]tetrahydropyran], with 3500 nM.
For the molecule `CC1(C(=NO)c2cc(F)cc(OCc3ccc4ccccc4c3)c2)COC1` [Example 18, E- and Z-3-methyl-3-[(3-((naphth-2-yl)methoxy)-5-fluorophen-1-yl)oximinomethyl]oxetane], the IC50 worked out at 5200 nM.
Regarding `Cn1c(=O)ccc2cc(COc3cccc(C(=NO)C4CCOCC4)c3)ccc21` [Example 11, E- and Z-4-[(3-((1,2-dihydro-1-methyl-2-oxoquinolin-6-yl)methoxy)phen-1-yl)oximinomethyl]tetrahydropyran], the inhibition at 0.39 µM under setting [1] worked out at 73%.
Take `CON=C(c1cc(F)cc(OCc2ccc3c(ccc(=O)n3C)c2)c1)C1CCOCC1` [Example 15, E- and Z-O-methyl-[(3-((1,2-dihydro-1-methyl-2-oxoquinolin-6-yl)methoxy)-5-fluorophen-1-yl)oximinomethyl]tetrahydropyran]: under “@ 0.20 μM, human whole blood, A23187, read-out: Inhibition of stimulated LTB4 formation in human whole blood”, the inhibition at 0.2 µM was 99.6%.

These data come from patent publication US5354865A, “Phenylmethyl derivatives having lipoxygenase inhibitory activity” (Abbott Laboratories, priority 1992, dated 1994).
